This note sets out measurements from article PMC8839659, “Evolution of DIMBOA-Glc O-Methyltransferases from Flavonoid O-Methyltransferases in the Grasses” (Molecules, 2022).

Common to all, as to assay: LC-MS/MS product formation
Type in all cases: biochemical

One assay has as its target T1, ZmBX12 (Zea mays, UniProt S5S8L0).
T1 construct: pASK-IBA37plus, N-terminal His tag, E. coli BL21(DE3), purified
T1 sequence (S5S8L0 1-370): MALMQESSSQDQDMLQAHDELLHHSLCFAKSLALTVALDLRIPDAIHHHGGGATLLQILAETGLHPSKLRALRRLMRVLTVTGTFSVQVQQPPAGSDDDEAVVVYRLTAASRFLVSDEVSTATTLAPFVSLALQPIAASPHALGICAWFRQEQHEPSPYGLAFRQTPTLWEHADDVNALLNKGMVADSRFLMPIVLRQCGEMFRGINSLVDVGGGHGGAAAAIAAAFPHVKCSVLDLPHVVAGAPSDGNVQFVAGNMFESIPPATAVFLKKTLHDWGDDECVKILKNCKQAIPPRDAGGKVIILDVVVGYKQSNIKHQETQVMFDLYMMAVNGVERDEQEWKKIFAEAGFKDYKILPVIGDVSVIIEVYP
As to conditions: SAM cosubstrate 100 µM, 20 µM substrate, pH 7, 25 °C, 1 h.

Another assay has as its target T2, ZmBX14 (Zea mays, UniProt A0A1P8SEU3).
T2 construct: pASK-IBA37plus, N-terminal His tag, E. coli BL21(DE3), purified
T2 sequence (A0A1P8SEU3 1-366): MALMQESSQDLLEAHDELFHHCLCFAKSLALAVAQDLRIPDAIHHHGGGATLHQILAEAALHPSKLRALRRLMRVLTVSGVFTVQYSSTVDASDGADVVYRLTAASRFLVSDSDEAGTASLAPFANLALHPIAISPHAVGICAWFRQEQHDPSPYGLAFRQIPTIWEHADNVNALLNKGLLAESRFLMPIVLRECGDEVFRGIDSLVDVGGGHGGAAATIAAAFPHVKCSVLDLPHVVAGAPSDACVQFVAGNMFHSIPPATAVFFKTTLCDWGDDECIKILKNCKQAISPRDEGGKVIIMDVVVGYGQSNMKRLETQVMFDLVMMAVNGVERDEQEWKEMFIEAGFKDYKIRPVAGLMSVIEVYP
The following applies: SAM cosubstrate 100 µM, 20 µM substrate, pH 7, 25 °C, 1 h.

Another assay addresses T3, ZnBX10 (Zea nicaraguensis, UniProt Z9J3M6HYI4).
T3 construct: full-length ORF, codon-optimized synthetic gene in pET100/D-TOPO, N-terminal His tag, E. coli BL21(DE3), purified
T3 sequence (Z9J3M6HYI4 1-373): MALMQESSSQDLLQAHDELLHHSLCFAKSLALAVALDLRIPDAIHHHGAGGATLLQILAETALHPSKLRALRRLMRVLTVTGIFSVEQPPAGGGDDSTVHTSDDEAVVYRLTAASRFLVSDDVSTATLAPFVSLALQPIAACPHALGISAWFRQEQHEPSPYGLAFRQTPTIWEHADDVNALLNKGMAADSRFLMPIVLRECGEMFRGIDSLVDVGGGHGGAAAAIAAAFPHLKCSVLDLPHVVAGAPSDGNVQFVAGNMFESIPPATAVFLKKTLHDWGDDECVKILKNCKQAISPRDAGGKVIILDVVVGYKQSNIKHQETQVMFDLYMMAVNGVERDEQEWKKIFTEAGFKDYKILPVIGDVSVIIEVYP
As to conditions: SAM cosubstrate 100 µM, 20 µM substrate, pH 7, 25 °C, 1 h.

The next assay concerns the target T4, ZmBX11 (Zea mays, UniProt S5RK83).
T4 construct: pASK-IBA37plus, N-terminal His tag, E. coli BL21(DE3), purified
T4 sequence (S5RK83 1-375): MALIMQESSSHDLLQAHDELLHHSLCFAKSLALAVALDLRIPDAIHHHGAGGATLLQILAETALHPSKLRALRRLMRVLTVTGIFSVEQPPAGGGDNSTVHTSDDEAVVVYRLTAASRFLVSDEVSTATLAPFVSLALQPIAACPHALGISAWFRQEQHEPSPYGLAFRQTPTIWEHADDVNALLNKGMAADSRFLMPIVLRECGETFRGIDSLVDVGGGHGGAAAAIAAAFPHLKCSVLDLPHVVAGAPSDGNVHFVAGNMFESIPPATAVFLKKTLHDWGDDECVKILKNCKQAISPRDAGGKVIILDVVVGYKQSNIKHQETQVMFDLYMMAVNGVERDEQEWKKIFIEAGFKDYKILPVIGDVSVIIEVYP
As to conditions: SAM cosubstrate 100 µM; 20 µM substrate; pH 7; 25 °C; 1 h; product isokaempferide.

The target in the next assay is T5, SbFOMT2 (Sorghum bicolor, UniProt C5WYJ6).
T5 construct: gene SORBI_3001G354400; full-length ORF from leaf cDNA, in pET100/D-TOPO or pASK-IBA37plus, N-terminal His tag, E. coli BL21(DE3), purified
T5 sequence (C5WYJ6 1-365): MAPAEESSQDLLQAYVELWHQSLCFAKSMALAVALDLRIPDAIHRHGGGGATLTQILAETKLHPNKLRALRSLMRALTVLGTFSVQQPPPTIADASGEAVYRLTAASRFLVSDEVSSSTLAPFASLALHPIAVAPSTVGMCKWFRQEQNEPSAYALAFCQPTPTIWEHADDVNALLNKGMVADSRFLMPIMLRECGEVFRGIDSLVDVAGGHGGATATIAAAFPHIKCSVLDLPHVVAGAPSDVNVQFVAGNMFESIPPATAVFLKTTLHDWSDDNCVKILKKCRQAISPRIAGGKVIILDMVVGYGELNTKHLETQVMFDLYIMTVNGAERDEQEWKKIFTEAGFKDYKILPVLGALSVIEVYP
As to conditions: SAM cosubstrate 100 µM; 20 µM substrate; pH 7; 25 °C; 1 h; flavonoid 5-O-methylation, trace isokaempferide.

For another assay, the target named is T6, ZmBX10 (Zea mays, UniProt S5S768).
T6 construct: pASK-IBA37plus, N-terminal His tag, E. coli BL21(DE3), purified
T6 sequence (S5S768 1-375): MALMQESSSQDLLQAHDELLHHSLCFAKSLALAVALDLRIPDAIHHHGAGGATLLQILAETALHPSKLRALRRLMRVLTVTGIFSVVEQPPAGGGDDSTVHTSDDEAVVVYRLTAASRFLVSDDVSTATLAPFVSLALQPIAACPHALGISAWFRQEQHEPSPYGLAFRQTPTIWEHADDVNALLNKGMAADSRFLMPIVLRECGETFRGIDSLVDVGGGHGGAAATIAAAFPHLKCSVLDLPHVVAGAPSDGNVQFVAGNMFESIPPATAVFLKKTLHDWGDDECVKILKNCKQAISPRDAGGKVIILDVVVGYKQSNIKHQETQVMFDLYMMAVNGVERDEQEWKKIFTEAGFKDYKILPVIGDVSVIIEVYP
As to conditions: SAM cosubstrate 100 µM; 20 µM substrate; pH 7; 25 °C; 1 h; product isokaempferide.

Where [1] appears, read: product HDMBOA-Glc, positive control.

`COc1ccc2c(c1)O[C@H](O[C@@H]1O[C@H](CO)[C@@H](O)[C@H](O)[C@H]1O)C(=O)N2O` [DIMBOA-Glc, 2,4-dihydroxy-7-methoxy-1,4-benzoxazin-3-one glucoside]: the LC-MS/MS product formation entry on ZmBX12 (setting [1]) was “Besides ZmBX14 and ZmBX12, ZnBX10 also converted DIMBOA-Glc to HDMBOA-Glc”; at ZmBX14 (setting [1]) it was “Besides ZmBX14 and ZmBX12, ZnBX10 also converted DIMBOA-Glc to HDMBOA-Glc”; at ZnBX10 (product HDMBOA-Glc), “ZnBX10 also converted DIMBOA-Glc to HDMBOA-Glc”.
As for `O=c1c(O)c(-c2ccc(O)cc2)oc2cc(O)cc(O)c12` [kaempferol], the LC-MS/MS product formation entry at ZmBX11 is “ZmBX10-12 and ZnBX10 produced substantial amounts of the 3-O-methylated derivative isokaempferide”; at SbFOMT2 it was “ZmFOMT2 and SbFOMT2 produced only trace amounts of this compound”; on ZmBX12 (product isokaempferide) it was “with ZmBX12 as the most active OMT, followed by ZmBX10, ZmBX11, and ZmBX14”; on ZmBX10, “ZmBX10-12 and ZnBX10 produced substantial amounts of the 3-O-methylated derivative isokaempferide”; on ZmBX14 (lowest activity of the maize BX OMTs) it was “with ZmBX12 as the most active OMT, followed by ZmBX10, ZmBX11, and ZmBX14”; on ZnBX10 (product isokaempferide), “ZmBX10-12 and ZnBX10 produced substantial amounts of the 3-O-methylated derivative isokaempferide”.
